In paper PMC9743093 (Journal of Medicinal Chemistry, 2022):
One block for each compound: values may come before it. Where a SMILES comes first, the peptide text is derived from it. The star is where a group is joined. Cbz = O=C(OCc1ccccc1)*

Key:
IDO1 [1] = molecular target: T1, IDO1 (Homo sapiens, UniProt P14902); assay: IDO1 degradation by western blot in IFNγ-stimulated U87 cells; conditions: for effect of co-treatment on NU223612-induced IDO1 degradation: combined with NU223612; for effect on IDO1 protein levels: U87 and GBM43 GBM cells in vitro, western blot
CRBN = CRBN (Homo sapiens, UniProt Q96SW2); assay: BLI binding of compounds to immobilized CRBN; conditions: steady-state, 30 °C, PBS with 0.5% DMSO
IDO1 [2] = molecular target: T1, IDO1; assay: IDO1 ubiquitination assay in U87 IDO1-FLAG cDNA-expressing cells; format: cell-based; conditions: immunoprecipitation, vs DMSO
[3] = system: NF-κB p65 phosphorylation; assay: NF-κB p65 phosphorylation by western blot; format: cell-based, human; conditions: IFNγ-stimulated U87, GBM43 or MDA-MB-231 cells
IDO1 [4] = molecular target: T1, IDO1; assay: BLI binding of compounds to immobilized IDO1
[5] = molecular target: NU223612/IDO1/CRBN ternary complex (Homo sapiens, UniProt P14902+Q96SW2); assay: BLI of NU223612 pre-incubated with CRBN binding to IDO1
TDO2 = TDO2 (Homo sapiens, UniProt P48775); assay: TDO2 western blot in U87 cells; format: cell-based; conditions: 24 h
IDO1 enzyme activity = IDO1 enzyme activity (Homo sapiens, UniProt P14902); assay: Kynurenine assay; format: cell-based; conditions: IFNγ-stimulated GBM cells (U87, GBM43), 24 h
[6] = system: NF-κB p65 DNA binding activity; assay: NF-κB; format: cell-based, human; conditions: U87 nuclear extracts, 10 μM
IDO1 [7] = assay: IDO1 degradation by western blot in further cancer cell lines; format: cell-based, human; conditions: CD18, PANC-1, OVCAR5, SKOV3, PC3, GL261 IDO1-O/E; 24 h
IDO1 [8] = molecular target: T1, IDO1; assay: IDO1 degradation by western blot in patient PBMCs; format: cell-based; conditions: GBM patient-isolated PBMCs, 50 ng/mL IFNγ
[9] = Pharmacokinetics in C57BL/6 mice; format: in vivo; conditions: mouse, single 25 mg/kg ip.
[10] = In vivo toxicity in C57BL/6 mice
GL261-luc. cells = assay: Survival of mice with intracranial GL261-luc. tumors; format: in vivo, C57BL/6 mice; conditions: 25 mg/kg once per day Monday-Friday up to 3 weeks, from day 14 post-injection
IDO2 = assay: IDO1/IDO2 mRNA expression in GL261 cells; format: cell-based, mouse; conditions: 10 µM, 24 hours
IDO1 [11] = molecular target: T1, IDO1; assay: IDO1 degradation by western blot in IFNγ-stimulated GBM43 cells; conditions: 24 h, 0.01-30 μM, n = 3
IDO1 [12] = molecular target: IDO1 (Mus musculus, UniProt P28776); assay: Pharmacodynamics: IDO1 western blot of intracranial GL261 mIDO1 tumors; conditions: GL261 mIDO1 cDNA tumors, single 25 mg/kg ip.
IDO1 (Mus musculus, UniProt P28776), sequence (P28776 whole entry): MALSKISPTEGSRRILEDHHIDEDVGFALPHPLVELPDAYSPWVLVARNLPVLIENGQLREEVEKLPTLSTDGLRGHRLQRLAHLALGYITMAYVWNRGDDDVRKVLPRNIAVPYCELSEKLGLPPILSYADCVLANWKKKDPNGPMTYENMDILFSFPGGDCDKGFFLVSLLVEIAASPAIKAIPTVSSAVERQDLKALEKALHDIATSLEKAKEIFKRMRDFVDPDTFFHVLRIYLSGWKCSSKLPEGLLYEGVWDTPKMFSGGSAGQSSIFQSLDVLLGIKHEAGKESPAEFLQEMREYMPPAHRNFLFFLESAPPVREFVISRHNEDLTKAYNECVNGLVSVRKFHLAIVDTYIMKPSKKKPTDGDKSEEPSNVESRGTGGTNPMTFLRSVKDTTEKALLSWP

T1 sequence (P14902 whole entry): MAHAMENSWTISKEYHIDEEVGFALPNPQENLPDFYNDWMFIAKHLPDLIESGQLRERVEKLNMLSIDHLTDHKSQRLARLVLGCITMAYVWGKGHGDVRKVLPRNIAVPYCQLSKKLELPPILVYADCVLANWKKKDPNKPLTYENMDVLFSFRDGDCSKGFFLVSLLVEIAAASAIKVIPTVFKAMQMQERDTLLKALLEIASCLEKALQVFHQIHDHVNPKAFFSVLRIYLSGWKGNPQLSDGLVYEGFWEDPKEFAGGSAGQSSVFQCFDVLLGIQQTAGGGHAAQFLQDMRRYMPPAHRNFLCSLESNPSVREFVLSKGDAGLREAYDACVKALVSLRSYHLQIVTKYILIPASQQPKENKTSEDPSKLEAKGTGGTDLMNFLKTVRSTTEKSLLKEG
NU223612/IDO1/CRBN ternary complex, sequence (P14902 whole entry): as above
NU223612/IDO1/CRBN ternary complex, sequence (Q96SW2 whole entry): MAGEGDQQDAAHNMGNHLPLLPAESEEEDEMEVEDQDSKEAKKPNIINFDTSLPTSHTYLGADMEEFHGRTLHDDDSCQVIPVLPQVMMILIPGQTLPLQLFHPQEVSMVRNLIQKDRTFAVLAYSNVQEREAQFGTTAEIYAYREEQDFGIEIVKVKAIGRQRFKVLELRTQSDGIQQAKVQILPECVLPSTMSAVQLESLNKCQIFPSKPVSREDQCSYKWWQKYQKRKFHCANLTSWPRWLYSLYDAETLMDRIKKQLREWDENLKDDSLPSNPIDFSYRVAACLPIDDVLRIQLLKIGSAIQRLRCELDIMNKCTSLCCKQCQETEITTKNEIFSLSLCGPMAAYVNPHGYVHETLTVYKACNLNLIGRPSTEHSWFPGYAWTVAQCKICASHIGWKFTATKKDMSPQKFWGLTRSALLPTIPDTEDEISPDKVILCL
IDO1 enzyme activity, sequence (P14902 whole entry): as the sequence (P14902 whole entry) above
TDO2, sequence (P48775 whole entry): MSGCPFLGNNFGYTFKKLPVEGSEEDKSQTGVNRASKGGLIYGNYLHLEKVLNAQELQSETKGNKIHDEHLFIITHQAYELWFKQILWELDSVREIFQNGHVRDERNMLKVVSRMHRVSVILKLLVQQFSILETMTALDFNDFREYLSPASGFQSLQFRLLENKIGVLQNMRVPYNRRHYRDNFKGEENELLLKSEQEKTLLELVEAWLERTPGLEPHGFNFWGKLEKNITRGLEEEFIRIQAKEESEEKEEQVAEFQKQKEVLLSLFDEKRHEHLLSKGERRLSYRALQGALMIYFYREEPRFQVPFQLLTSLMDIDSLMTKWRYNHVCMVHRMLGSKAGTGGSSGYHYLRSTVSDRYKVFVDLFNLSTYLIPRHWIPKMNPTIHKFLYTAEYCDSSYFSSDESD
CRBN, sequence (Q96SW2 whole entry): as the sequence (Q96SW2 whole entry) above

Structure (SMILES): NS(=O)(=O)OC[C@@H]1C[C@@H](n2ccc3c(N[C@H]4CCc5ccccc54)ncnc32)C[C@@H]1O [MLN4924, reference compound]
effect of co-treatment on NU223612-induced IDO1 degradation (IDO1 [1]; U87 cells): ablation of IDO1-PROTAC-mediated IDO1 protein degradation

Structure (SMILES): Nc1cccc2c1C(=O)N(C1CCC(=O)NC1=O)C2=O (stereo not shown) [pomalidomide, reference compound]
effect of co-treatment on NU223612-induced IDO1 degradation (IDO1 [1]; U87 cells): ablation of IDO1-PROTAC-mediated IDO1 protein degradation

Structure (SMILES): CC(C)C[C@@H](C=O)NC(=O)[C@H](CC(C)C)NC(=O)[C@H](CC(C)C)NC(=O)OCc1ccccc1 [MG132, reference compound] (Cbz-Leu-Leu-Leu-aldehyde)
effect of co-treatment on NU223612-induced IDO1 degradation (IDO1 [1]; U87 cells): ablation of IDO1-PROTAC-mediated IDO1 protein degradation

binding affinity (Kd) to CRBN (CRBN): no measurable binding
Structure (SMILES): C[C@@H](C(=O)Nc1ccc(OC2CCN(C(=O)CCOCCOCCNc3cccc4c3C(=O)N(C3CCC(=O)N(C)C3=O)C4=O)CC2)cc1)[C@H]1CC[C@@H](c2ccnc3ccc(F)cc32)CC1 (stereo partly drawn) [NU226211, (2R)-2-((1S,4S)-4-(6-Fluoroquinolin-4-yl)cyclohexyl)-N-(4-((1-(3-(2-(2-((2-(1-methyl-2,6-dioxopiperidin-3-yl)-1,3-dioxoisoindolin-4-yl)amino)ethoxy)ethoxy)propanoyl)piperidin-4-yl)oxy)phenyl)propenamide]
ubiquitination of IDO1 (IDO1 [2]): neither NU226211 nor NU223618 mediated the ubiquitination
p65 phosphorylation [3]: neither NU226211 nor NU223618 inhibits NF-κB phosphorylation
effect on IDO1 protein levels (IDO1 [1]): neither NU226211 nor NU223618 decreases IDO1 protein levels

Structure (SMILES): C[C@@H](C(=O)Nc1ccc(Cl)cc1)[C@H]1CC[C@@H](c2ccnc3ccc(F)cc32)CC1 [NU223618, reference compound]
p65 phosphorylation [3]: neither NU226211 nor NU223618 inhibits NF-κB phosphorylation

Structure (SMILES): C[C@@H](C(=O)Nc1ccc(OC2CCN(C(=O)CCOCCOCCNc3cccc4c3C(=O)N(C3CCC(=O)NC3=O)C4=O)CC2)cc1)[C@H]1CC[C@@H](c2ccnc3ccc(F)cc32)CC1 (stereo partly drawn) [NU223612, (2R)-N-(4-((1-(3-(2-(2-((2-(2,6-Dioxopiperidin-3-yl)-1,3-dioxoisoindolin-4-Yl)amino)ethoxy)ethoxy)propanoyl)piperidin-4-yl)oxy)phenyl)-2-((1S,4S)-4-(6-fluoroquinolin-4-yl)cyclohexyl)propenamide]
koff (IDO1 [4]; read-out: koff, NU223612/IDO1 binary complex): 0.042 s⁻¹
kon (IDO1 [4]; read-out: kon, NU223612/IDO1 binary complex): 68900 M⁻¹ s⁻¹
Kd [5]: 117 nM
cooperativity α = Kd binary/Kd ternary [5]: 2.5
koff ([5]; read-out: koff, ternary NU223612/CRBN/IDO1 complex): 0.0015 s⁻¹
kon ([5]; read-out: kon, ternary NU223612/CRBN/IDO1 complex): 12800 M⁻¹ s⁻¹
ubiquitination of IDO1 (IDO1 [2]): causes monoubiquitination of IDO1
effect on TDO2 protein levels (TDO2): did not decrease TDO2 protein levels
IDO1 enzyme activity (Kyn levels) (IDO1 enzyme activity): dose-dependently inhibits IDO1 enzyme activity
p65 phosphorylation [3]: decreases p65 phosphorylation
NF-κB p65 transcription factor DNA binding activity [6]: inhibits both IDO1-mediated tryptophan metabolism as well as IDO1 non-enzyme-mediated NF-κB p65 transcription factor DNA binding activity
IDO1 degradation in other cancer cell types (IDO1 [7]): dose-dependently degrades IDO1 in all of the human cancer cell types that were analyzed
IDO1 degradation in PBMCs (IDO1 [8]): degrades IDO1 protein
Cmax, brain [9]: 2000 nM
mortality ([10]; 100 mg/kg ip. 5 days/week for 3 weeks): increased mortality
precipitation of compound in the abdomen ([10]; 50 and 100 mg/kg doses ip.): precipitation of NU223612 observed around the intestines, liver, and pancreas
accumulation in serum and brain tissue ([10]; after 3 weeks ip., mice without brain tumors, mass spectrometry): dose-dependent accumulation of NU223612 in serum and brain tissue
body-weight changes ([10]; ip. 5 days/week for 3 weeks, 10, 25, 50 or 100 mg/kg): did not result in significant body-weight changes at any dose
longer-term survival post-tumor cell injection (GL261-luc. cells): up to 45 days
IDO2 (and IDO1) mRNA expression levels (IDO2): no significant NU223612 effects on glioma cell IDO2 expression levels
effect on IDO1 protein levels (IDO1 [1]): decreases IDO1 protein levels dose-dependently
degradation of catalytically inactive mutant IDO1 (IDO1 [1]; U87 cells transfected with enzyme-null IDO1 cDNA, 24 h): facilitated protein degradation of IDO1 enzyme-dead protein
IDO1 protein degradation at 100 nM (IDO1 [1]; U87 cells, 100 nM, 24 h): significant IDO1 protein degradation
duration of IDO1 degradation after a single continuous treatment (IDO1 [1]; U87 cells, 1 and 10 μM): up to 72 h
DC50 (IDO1 [1]; U87 cells, IFNγ-stimulated, 24 h, 0.01-30 μM, n = 3): 329 nM
effect of washout after 24 h on IDO1 degradation (IDO1 [1]; U87 cells, cultured without compound up to 48 h): did not affect the degradation of IDO1 protein
nuclear and cytoplasmic IDO1 degradation (IDO1 [1]; U87 cells, subcellular fractions): equally degraded IDO1 protein levels in both the cytoplasmic and nuclear intracellular compartments
duration of IDO1 degradation effect (IDO1 [1]; human GBM cells (U87, GBM43)): at least 96 h
time at which IDO1 degradation began after treatment initiation (IDO1 [1]; human GBM cells (U87, GBM43)): 16 h
DC50 (IDO1 [11]): 544 nM
time IDO1 protein remains low in intracranial tumors (IDO1 [12]): up to 24 h
decrease of IDO1 protein in intracranial tumors (IDO1 [12]; within 2 h post-treatment): > 70%
